Data: US20150259294A1, “METHOD OF PLANT GROWTH PROMOTION USING CARBOXAMIDE DERIVATIVES” (BAYER CROPSCIENCE AG, priority 2012, published 2015)

Tests used:
[1] = tested on: wheat leave discs; experiment: Chlorophyll preservation bioassay in wheat leave discs; conditions: for Chlorophyll content (%): wheat leave discs at 4 dpt vs control at 0 dpt; for colour of leave discs at the end of the experiment: wheat and barley leave discs, 3 or 4 dpt in the dark
Method: (§1) To confirm the greening effect of compounds of formula (I) according to the invention observed in field trials, a simple bioassay was set up using wheat and barley. Discs of 1 cm of diameter were cut within leaves collected from 4 weeks old plants and deep at room temperature in water for 1 hour to allow ethylene produced after wound injury to dissipate. Control samples were produced dipping leave discs for 15 min in a solution of 5% DMSO-10% acetone-0.005% tween80 (bioassay formulation), immediately frozen (control 0 day post treatment-dpt) or deposited on Whatmann filter paper soaked by the bioassay formulation, in Petri dishes, […] Leaves discs treated with test compound were processed in the same way. In this case, leave discs were deep for 15 minutes in test compound solution and left to incubate on filter paper soaked with the corresponding test solution. Compounds of formula (I) according to the invention were tested in EC100 formulation unless otherwise specified; Other SDHI fungicides (Fluxapyroxad, Isopyrazam and Hambra) were tested in their respective field formulations.
(§2) Leave discs were frozen in liquid nitrogen and ground prior to chlorophyll extraction with 1 mL of an acetone-water (80-20 vol/vol) solution and chlorophyll concentration evaluation at 663 nm. Percentages of chlorophyll content in 3 or 4 dpt controls and corresponding treated samples were reported to the chlorophyll content measured in 0 dpt controls.

[2] = tested on: barley leave discs; experiment: Chlorophyll preservation bioassay in barley leave discs; conditions: barley leaves at 3 dpt vs control at 0 dpt
Method: as §1, §2

[3] = tested on: soybean cultivar BRS 245; experiment: Soybean seed treatment field trial: development and yield; type: in vivo; conditions: for Plant Height (cm)/%: 050 SC, 42 days after planting, untreated control 33 cm = 100%; for Weight Root (g)/% / Weight Dry Plant (g)/%: 49 days after planting; for Weight Root (g)/%: untreated control 10 g = 100%; for Weight Dry Plant (g)/%: untreated control 46 g = 100%; for Grain Yield (dt)/%: untreated control 28 dt = 100%; for Weight of 1000 Grains (g)/%: untreated control 125 g = 100%
Method: Seeds of the Brazilian soybean cultivar BRS 245 were treated with compound A5: […] The product was applied as 050 SC with rates of 25 and 100 g a.i./dt. The field trial was set up in an experimental station close to Paulinia, S. P., in Brazil, in February 2012. […] Fertilization, herbicide- and insecticide applications were carried out according to the local agricultural practice. 42 days after planting plant height, 49 days after planting the dry weight of both entire green plants and the roots were measured. This trial was done under almost disease free conditions (“Asian Soybean Rust” Phakopsora pachyrhizi arrived about month after planting with a very low severity).

[4] = tested on: winter wheat variety Dekan; experiment: Foliar application field trial Laacherhof: yield of winter wheat; type: in vivo; conditions: 50 g a.i./ha, sprayed threefold at BBCH 31, 39 and 69, 100EC formulation with adjuvant; for Grain Yield (dt/ha): untreated control 86.25
Method: (§3) The field trial in winter wheat was conducted in the experimental station “Laacherhof” in Germany in spring/summer 2012.
(§4) Seeds of the winter wheat variety “Dekan” were planted on Oct. 17, 2011. Fertilization, herbicide- and plant growth regulator applications were carried out according to the local agricultural practice. Additionally, a cover spray with “Pronto Plus” was carried out at BBCH-growth stage 51 in order to keep brown rust (Puccinia triticina) out of the field trial (trial under pathogen-free conditions). The trial was conducted with 3 replicates and the replicates 2 and 3 were randomized. The plot size was 8.8 m^2.
(§5) Compounds A5 (N-(5-chloro-2-isopropylbenzyl)-N-cyclopropyl-3-(difluoromethyl)-5-fluoro-1-methyl-1H-pyrazole-4-carboxamide), A7 (N-cyclopropyl-3-(difluoromethyl)-5-fluoro-N-(5-fluoro-2-isopropylbenzyl)-1-methyl-1H-pyrazole-4-carboxamide), A12 (N-cyclopropyl-3-(difluoromethyl)-5-fluoro-N-(2-isopropyl-5-methylbenzyl)-1-methyl-1H-pyrazole-4-carboxamide) and A10 (N-cyclopropyl-3-(difluoromethyl)-5-fluoro-N-(2-fluoro-6-isopropylbenzyl)-1-methyl-1H-pyrazole-4-carboxamide) were sprayed threefold at BBCH-growth stages 31, 39 and 69 with an use rate of 50 g a.i./ha. All compounds were applied as 100EC formulation adding an adjuvant.
The winter wheat was harvested on Aug. 3, 2012.

[5] = tested on: winter wheat variety Dekan; experiment: Foliar application field trial Laacherhof: greening effect in winter wheat; type: in vivo; conditions: 50 g a.i./ha, sprayed threefold at BBCH 31, 39 and 69; percentage of the color green; untreated control 21.7
Method: as §3, §4, §5
The greening effect of the single treatments was evaluated on Jul. 6, 2012.

[6] = tested on: winter wheat variety Dekan; experiment: Foliar application field trial Höfchen: green leaves and yield in winter wheat; type: in vivo; conditions: for Greening Effect (%): 100 EC, assessed at EC 85, 38 days after second application, untreated control 0; for Grain Yield (dt/ha): untreated control 85
Method: The field trial was conducted in the experimental station “Höfchen” in Germany in spring 2012. Winter wheat, variety “Dekan”, was planted on October 2011. Fertilization, herbicide- and plant growth regulator applications were carried out according to the local agricultural practice.
The trial was conducted with 4 replicates. Plot size was 12 m^2 and there were four replicates.
Compound A5 was applied as a 100 EC formulation with rates of 37 and 75 g a.i./ha twice in the growing season at BBCH-growth stages EC 33 and 55.
The effect on the green foliage was assessed on July 2012, 38 days after the second application, at growth stage EC 85, (see table 6).
(§6) The trial was harvested on August 2012.

[7] = tested on: winter wheat variety Akteur; experiment: Foliar application field trial Langfoerden (FA12DSD559XJE1): yield in winter wheat; type: in vivo; conditions: for Grain Yield (dt/ha): 100 EC, disease free, untreated control 62
Method: The field trial FA12DSD559XJE1 was conducted in the experimental station “Langfoerden” in Germany in spring 2012.
Winter wheat, variety “Akteur”, was planted on November 2011. Fertilization, herbicide- and plant growth regulator applications were carried out according to the local agricultural practice.
The trial was conducted with 4 replicates. Plot size was 16 m^2 and there were four replicates.
Compound A5 was applied as a 100 EC formulation with rates of 37 and 75 g a.i./ha twice in the growing season at BBCH-growth stages EC 33 and 61.
In this trial there was no significant disease severity assessed. It can be considered as disease free.
as §6

[8] = tested on: corn; experiment: Foliar application field trial USA (FA12NARS4CUJX1): green foliage and yield in corn; type: in vivo; conditions: for Greening Effect (%): 100 EC, green foliage of corn at EC 79, untreated control 43; for Grain Yield (dt/ha): untreated control 39.5
Method: The field trial FA12NARS4CUJX1 was conducted in the USA (IA, 50046 Cambridge) in spring 2012.
The crop was planted on April 2012. Fertilization and herbicide applications were carried out according to the local agricultural practice.
The trial was conducted with 4 replicates. Plot size was 80 m^2 and there were four replicates.
Compound A5 was applied as a 100 EC formulation with rates of 20 and 50 g a.i./ha twice in the growing season at BBCH-growth stages EC 15 and 61.
In this trial there was no significant leaf disease severity assessed (Kabatiella zeae pest severity below 5%). It can be considered as almost disease free.
The trial was harvested on September 2012.

[9] = formula (I) compounds in EC100 formulation, other SDHI in field formulations
[10] = 37 g a.i./ha twice (EC 33 and 55)
[11] = 75 g a.i./ha twice (EC 33 and 55)
[12] = 37 g a.i./ha twice (EC 33 and 61)
[13] = 75 g a.i./ha twice (EC 33 and 61)
[14] = 20 g a.i./ha twice (EC 15 and 61)
[15] = 50 g a.i./ha twice (EC 15 and 61)

CC(C)c1ccccc1CN(C(=O)c1c(C(F)F)nn(C)c1F)C1CC1 [Compound A1, N-cyclopropyl-3-(difluoromethyl)-5-fluoro-N-(2-isopropylbenzyl)-1-methyl-1H-pyrazole-4-carboxamide]
Chlorophyll content (%) [1, 9]: 87%

CC(C)c1ccc(Cl)cc1CN(C(=O)c1c(C(F)F)nn(C)c1F)C1CC1 [Compound A5, N-(5-chloro-2-isopropylbenzyl)-N-cyclopropyl-3-(difluoromethyl)-5-fluoro-1-methyl-1H-pyrazole-4-carboxamide]
Chlorophyll content (%) [1, 9]: 78%
Chlorophyll content (%) [2, 9]: 55%
Plant Height (cm)/% ([3]; seed treatment 25 g a.i./dt): 105%
Weight Root (g)/% ([3]; seed treatment 25 g a.i./dt): 117%
Weight Dry Plant (g)/% ([3]; seed treatment 25 g a.i./dt): 107%
Grain Yield (dt)/% ([3]; seed treatment 25 g a.i./dt): 112%
Weight of 1000 Grains (g)/% ([3]; seed treatment 25 g a.i./dt): 103%
Plant Height (cm)/% ([3]; seed treatment 100 g a.i./dt): 105%
Weight Root (g)/% ([3]; seed treatment 100 g a.i./dt): 103%
Weight Dry Plant (g)/% ([3]; seed treatment 100 g a.i./dt): 108%
Grain Yield (dt)/% ([3]; seed treatment 100 g a.i./dt): 111%
Weight of 1000 Grains (g)/% ([3]; seed treatment 100 g a.i./dt): 105%
impact on development and yield of soybean (in words) ([3]; seed treatment, almost disease free conditions): clearly stimulates the physiological development of soybean plants and boosts both grain yield and the grain weight
Grain Yield (% of Untreated Control) [4]: 120%
Grain Yield (dt/ha) [4]: 103.1 dt/ha
Greening Effect (%) [5]: 26.7%
Grain Yield (% of Untreated Control) [6, 10]: 128%
Greening Effect (%) [6, 10]: 54%
Grain Yield (dt/ha) [6, 10]: 109 dt/ha
Grain Yield (% of Untreated Control) [6, 11]: 136%
Greening Effect (%) [6, 11]: 86%
Grain Yield (dt/ha) [6, 11]: 115 dt/ha
effect on maintenance of green leaves in winter wheat (in words) ([6]; foliar sprays): clearly has an effect on the maintenance of the green leaves shortly before harvest
Grain Yield (% of Untreated Control) [7, 12]: 117%
Grain Yield (dt/ha) [7, 12]: 72 dt/ha
Grain Yield (% of Untreated Control) [7, 13]: 124%
Grain Yield (dt/ha) [7, 13]: 76 dt/ha
effect on grain yield in winter wheat (in words) ([7]; foliar sprays, practically disease-free): clearly has an effect on grain yield
Grain Yield (% of Untreated Control) [8, 14]: 123%
Greening Effect (%) [8, 14]: 59%
Grain Yield (dt/ha) [8, 14]: 48.5 dt/ha
Grain Yield (% of Untreated Control) [8, 15]: 131%
Greening Effect (%) [8, 15]: 63%
Grain Yield (dt/ha) [8, 15]: 51.8 dt/ha
effect on maintenance of green leaves in corn (in words) ([8]; foliar sprays): clearly has an effect on the maintenance of the green leaves shortly before harvest

CC(C)c1ccc(F)cc1CN(C(=O)c1c(C(F)F)nn(C)c1F)C1CC1 [Compound A7, N-cyclopropyl-3-(difluoromethyl)-5-fluoro-N-(5-fluoro-2-isopropylbenzyl)-1-methyl-1H-pyrazole-4-carboxamide]
Chlorophyll content (%) ([1]; tested in EC50 formulation): 83%
Chlorophyll content (%) ([2]; tested in EC50 formulation): 77%
Grain Yield (% of Untreated Control) [4]: 115%
Grain Yield (dt/ha) [4]: 99.4 dt/ha
Greening Effect (%) [5]: 36.7%

CC(C)c1cccc(F)c1CN(C(=O)c1c(C(F)F)nn(C)c1F)C1CC1 [Compound A10, N-cyclopropyl-3-(difluoromethyl)-5-fluoro-N-(2-fluoro-6-isopropylbenzyl)-1-methyl-1H-pyrazole-4-carboxamide]
Chlorophyll content (%) [2, 9]: 60%
Grain Yield (% of Untreated Control) [4]: 116%
Grain Yield (dt/ha) [4]: 99.9 dt/ha
Greening Effect (%) [5]: 50.0%

Cc1ccc(C(C)C)c(CN(C(=O)c2c(C(F)F)nn(C)c2F)C2CC2)c1 [Compound A12, N-cyclopropyl-3-(difluoromethyl)-5-fluoro-N-(2-isopropyl-5-methylbenzyl)-1-methyl-1H-pyrazole-4-carboxamide]
Chlorophyll content (%) [1, 9]: 88%
Chlorophyll content (%) [2, 9]: 72%
Grain Yield (% of Untreated Control) [4]: 110%
Grain Yield (dt/ha) [4]: 94.9 dt/ha
Greening Effect (%) [5]: 53.3%

Cc1ccc(C(C)(C)C)c(CN(C(=O)c2c(C(F)F)nn(C)c2F)C2CC2)c1 [Compound A14, N-(2-tert-butyl-5-methylbenzyl)-N-cyclopropyl-3-(difluoromethyl)-5-fluoro-1-methyl-1H-pyrazole-4-carboxamide]
Chlorophyll content (%) [2, 9]: 77%

Cn1cc(C(=O)Nc2ccccc2-c2cc(F)c(F)c(F)c2)c(C(F)F)n1 [Fluxapyroxad, reference compound]
colour of leave discs at the end of the experiment [1]: discolored
Chlorophyll content (%) [1, 9]: 51%
Chlorophyll content (%) [2, 9]: 28%

CC(C)C1C2CCC1c1c(NC(=O)c3cn(C)nc3C(F)F)cccc12 (stereo not drawn) [Isopyrazam, reference compound]
colour of leave discs at the end of the experiment [1]: discolored
Chlorophyll content (%) [1, 9]: 49%
Chlorophyll content (%) [2, 9]: 32%
